Values of other authors in patent US20030203963A1, “Antimicrobial agent” (priority 2001, published 2003).

Legend:
Settings in all cases: cited from earlier work
[1] = system: aerobic, Gram-negative bacteria
[2] = system: Gram-positive bacteria, yeasts, and moulds
bacteria = system: bacteria
[3] = system: yeasts and moulds as well as catalase-positive bacteria
Salmonella = system: Salmonella

Molecule: O=S=O [Sulphur Dioxide]
- Effective concentrations for inhibition [1]: 250-500 ppm
- Effective concentrations [2]: 800-2000 ppm

Molecule: Propionic Acid and Propionate
- Concentrations necessary for inhibition of bacteria (bacteria): > 16000 ppm

Molecule: C/C=C/C=C/C(=O)O [Sorbic Acid]
- Effective concentration [3]: 500-3000 ppm

Molecule: O=NO [nitrite]
- Concentration at which Salmonella is inhibited (Salmonella; meat products): > 1,000 ppm

Molecule: Nisin
- Inhibition of Salmonella (Salmonella; in food): unable to inhibit
